{
  "source": "patent US9133134B2",
  "about": "“Inhibitors of bruton's tyrosine kinase” (Pharmacyclics, Inc., priority 2012, dated 2015)",
  "target": "human BTK (Homo sapiens (Human), UniProt Q06187)",
  "sequence (Q06187 whole entry)": "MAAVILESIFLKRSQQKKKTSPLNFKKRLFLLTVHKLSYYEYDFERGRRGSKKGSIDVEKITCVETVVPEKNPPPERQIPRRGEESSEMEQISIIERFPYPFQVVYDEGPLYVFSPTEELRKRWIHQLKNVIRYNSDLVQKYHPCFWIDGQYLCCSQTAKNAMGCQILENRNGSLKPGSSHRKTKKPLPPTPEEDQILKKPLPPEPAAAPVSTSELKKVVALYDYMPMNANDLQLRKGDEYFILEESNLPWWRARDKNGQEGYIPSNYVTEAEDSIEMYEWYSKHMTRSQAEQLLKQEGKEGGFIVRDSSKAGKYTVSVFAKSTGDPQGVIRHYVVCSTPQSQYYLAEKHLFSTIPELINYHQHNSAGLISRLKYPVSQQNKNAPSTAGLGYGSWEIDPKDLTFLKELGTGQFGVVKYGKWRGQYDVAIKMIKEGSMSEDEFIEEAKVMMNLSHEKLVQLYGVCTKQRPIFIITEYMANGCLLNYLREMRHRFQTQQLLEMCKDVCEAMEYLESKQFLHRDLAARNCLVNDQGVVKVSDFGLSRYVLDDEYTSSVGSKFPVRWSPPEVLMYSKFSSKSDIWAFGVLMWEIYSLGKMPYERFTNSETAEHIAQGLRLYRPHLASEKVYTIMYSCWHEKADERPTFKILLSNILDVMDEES",
  "test": "Btk enzymatic kinase assay (electrophoretic mobility shift assay)",
  "format": "biochemical",
  "conditions": "recombinant full-length human BTK 1 nM, ATP 16 μM, peptide substrate 1 μM, one hour incubation",
  "description": "Kinase activity is measured in vitro using electrophoretic mobility shift assay. The kinase reactions are assembled in a total volume of 25 μL in 384 well plates. […] The reaction is incubated for one hour and is quenched by the addition of 45 μL of termination buffer (100 mM HEPES, pH7.5, 0.01% Triton X-100, 30 mM EDTA). The terminated reactions are analyzed using 12 channel LabChip® 3000 microfluidic detection instrument (Caliper Life Sciences). […] Change in the relative fluorescence intensity of the substrate and product peaks is the parameter measured, reflecting enzyme activity. In the presence of an inhibitor, the ratio between product and substrate is altered: the signal of the product decreases, while the signal of the substrate increases.\nActivity in each sample is determined as the product to sum ratio (PSR): P/(S+P), where P is the peak height of the product peptide and S is the peak height of the substrate peptide. For each compound, enzyme activity is measured at various concentrations (12 concentrations of compound spaced by 3× dilution intervals). […] Percent inhibition (Pinh) is determined using following equation: […]\nThe IC50 values of inhibitors are determined by 4 parameter sigmoidal dose-response model fitting of the inhibition curves (Pinh versus inhibitor concentration) using XLfit 4 software.",
  "data": [
    {"smiles": "COCCOc1ccc(Nc2ncc(F)c(Nc3cccc(NC(=O)C(O)CO)c3)n2)cc1", "note": "(stereo not shown) [Compound 4, N-(3-(5-fluoro-2-(4-(2-methoxyethoxy)phenylamino)pyrimidin-4-ylamino)phenyl)-2,3-dihydroxypropanamide]", "values": [
      {"measurement": "IC50", "value": "< 500", "unit": "nM"}
    ]}
  ]
}
